These results are taken from patent publication US11572353B2, “Alkynyl-substituted heterocyclic compound, preparation method therefor and medical use thereof” (BEIJING INNOCARE PHARMA TECH CO., LTD., priority 2016, dated 2023).

The target in assay [1] is human recombinant FGFR2 catalytic domain protein (amino acid 400-821) (Homo sapiens (Human), UniProt P21802). The experiment in a line: FGFR2 activity inhibition test (HTRF kinase assay). To be noted: 50 μM ATP. It is filed as biochemical. Here is the method:
(§1) The effect of the compounds of the present invention on the in vitro activity of FGFR was assessed by measuring the phosphorylation level of the substrate in a kinase reaction using the HTRF kinase assay kit (Table 1).
(§2) If the IC50 value of a compound is very low, the initial concentration of the compound can be lowered.
(§3) The IC50 value of the compound was calculated from the 10 concentration points using the XLfit software in Excel by the following formula: Y=Bottom+(Top−Bottom)/(1+10^((log IC50−X)*slope factor))
(§4) Where Y is the percentage of inhibition, Bottom is the bottom platform value of the S-curve, Top is the top platform value of the S-curve, X is the logarithm of the concentration of the compound to be tested, and slope factor is the slope coefficient of the curve.
In general terms: In TR-FRET formats the signal depends on donor and acceptor labels being close together.

Assay [2] concerns RT4 bladder cancer cell line. The experiment in a line: Inhibition on the proliferation of RT4 cells (luminescent cell viability assay). The assay is classed as cell-based. To be noted: Homo sapiens, RT-4, 72 hours. The procedure:
(§5) CellTilter-Glo reagent (Promega, Cat. No. G7572) consists of CTG lyophilized powder and CTG buffer. Before use, the lyophilized powder needs to be dissolved in the buffer.
(§6) After overnight incubation, 3 μL of DMEM diluted compound was added to each well, which was then gently centrifuged to mix well, and then the 384-well plate was placed in a 37° C., 5% CO2 incubator to continue the culture, and after 72 hours, the plate was taken out and allowed to stand at room temperature for 30 minutes, next added 15 μL of CTG reagent per well, which was warmed up to room temperature, the plate was shaken gently on a shaker for 3 minutes to ensure sufficient cell lysis, allowed to stand 10 minutes to stabilize the luminescence signal, and then read the luminescence signal with EnVision (Perkin Elmer).
as §4
The effect of the compounds of the present invention on cell proliferation of the RT4 bladder cancer cell line was assessed using a luminescent cell viability assay (Table 2).
(§7) For the experimental method, please refer to the method for determining the inhibition on the proliferation of Hep3B cells.

Assay [3] deals with human recombinant FGFR4 catalytic domain protein (amino acid 460-802) (Homo sapiens (Human), UniProt P22455). As to the kind of experiment: FGFR4 activity inhibition test (HTRF kinase assay). The assay is classed as biochemical. Conditions: 90 μM ATP. Here is the method:
as §1, §2, §3, §4

Assay [4] relates to SNU-16 gastric cancer cell line. The experiment in a line: Inhibition on the proliferation of SNU-16 cells (luminescent cell viability assay). The assay is classed as cell-based. Conditions: Homo sapiens, 72 hours. The procedure: as §5, §6, §4
The effect of the compounds of the present invention on cell proliferation of SNU-16 gastric cancer cell line was assessed using a luminescent cell viability assay (Table 2).
as §7

The next assay deals with Hep3B hepatoma cell line. As to the kind of experiment: Inhibition on the proliferation of Hep3B cells (luminescent cell viability assay). The assay is classed as cell-based. Conditions: Homo sapiens, 72 hours. Here is the method: The effect of the compounds of the present invention on cell proliferation of Hep3B hepatoma cell line was assessed using a luminescent cell viability assay (Table 2).
as §5, §6, §4

Assay [5] has as its target human recombinant FGFR3 catalytic domain protein (amino acid 399-806) (Homo sapiens (Human), UniProt P22607). The experiment in a line: FGFR3 activity inhibition test (HTRF kinase assay). The assay is classed as biochemical. Conditions: 90 μM ATP. Here is the method:
as §1, §2, §3, §4

Assay [6] concerns the target human recombinant FGFR1 catalytic domain protein (amino acid 308-731) (Homo sapiens (Human), UniProt P11362). As to the kind of experiment: FGFR1 activity inhibition test (HTRF kinase assay). It is filed as biochemical. To be noted: 40 μM ATP. The procedure:
as §1, §2, §3, §4

The IC50 is the concentration needed to halve the response being measured.

Sequence of human recombinant FGFR2 catalytic domain protein (amino acid 400-821) (P21802 400-821): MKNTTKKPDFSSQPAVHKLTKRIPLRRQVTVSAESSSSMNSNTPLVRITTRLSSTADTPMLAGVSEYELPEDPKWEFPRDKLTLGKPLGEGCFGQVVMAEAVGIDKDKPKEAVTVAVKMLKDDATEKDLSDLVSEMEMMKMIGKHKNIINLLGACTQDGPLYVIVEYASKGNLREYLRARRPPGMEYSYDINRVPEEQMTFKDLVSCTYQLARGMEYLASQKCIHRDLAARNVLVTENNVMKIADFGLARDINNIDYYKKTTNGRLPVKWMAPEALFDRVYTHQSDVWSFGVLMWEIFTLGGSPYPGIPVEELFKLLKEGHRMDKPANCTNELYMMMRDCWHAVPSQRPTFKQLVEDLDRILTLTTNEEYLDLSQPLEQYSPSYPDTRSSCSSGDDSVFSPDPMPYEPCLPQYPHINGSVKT
Sequence of human recombinant FGFR1 catalytic domain protein (amino acid 308-731) (P11362 other isoform, or with tags, fused parts or gaps): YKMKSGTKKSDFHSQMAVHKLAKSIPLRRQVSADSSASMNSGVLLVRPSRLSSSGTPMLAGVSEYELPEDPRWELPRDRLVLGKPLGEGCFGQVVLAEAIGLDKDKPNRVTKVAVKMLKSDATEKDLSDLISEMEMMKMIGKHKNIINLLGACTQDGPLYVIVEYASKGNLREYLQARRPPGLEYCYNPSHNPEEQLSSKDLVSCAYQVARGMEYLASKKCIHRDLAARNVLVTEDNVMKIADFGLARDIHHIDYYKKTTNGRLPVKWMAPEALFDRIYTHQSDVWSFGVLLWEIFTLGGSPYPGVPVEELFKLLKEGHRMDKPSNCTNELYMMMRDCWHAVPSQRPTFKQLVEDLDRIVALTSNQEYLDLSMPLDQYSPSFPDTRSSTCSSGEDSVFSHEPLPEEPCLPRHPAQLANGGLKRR
Sequence of human recombinant FGFR3 catalytic domain protein (amino acid 399-806) (P22607 399-806): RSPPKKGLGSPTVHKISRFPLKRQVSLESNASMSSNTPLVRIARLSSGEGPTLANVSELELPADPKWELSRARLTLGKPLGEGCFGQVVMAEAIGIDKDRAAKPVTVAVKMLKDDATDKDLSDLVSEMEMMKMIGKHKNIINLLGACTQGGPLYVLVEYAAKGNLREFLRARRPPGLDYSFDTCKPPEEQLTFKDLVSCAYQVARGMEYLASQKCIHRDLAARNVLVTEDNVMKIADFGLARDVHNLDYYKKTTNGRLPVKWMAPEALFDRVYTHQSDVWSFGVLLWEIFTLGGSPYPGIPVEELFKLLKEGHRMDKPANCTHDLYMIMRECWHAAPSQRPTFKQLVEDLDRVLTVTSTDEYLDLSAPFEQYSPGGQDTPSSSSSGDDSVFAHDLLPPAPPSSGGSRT
Sequence of human recombinant FGFR4 catalytic domain protein (amino acid 460-802) (P22455 460-802): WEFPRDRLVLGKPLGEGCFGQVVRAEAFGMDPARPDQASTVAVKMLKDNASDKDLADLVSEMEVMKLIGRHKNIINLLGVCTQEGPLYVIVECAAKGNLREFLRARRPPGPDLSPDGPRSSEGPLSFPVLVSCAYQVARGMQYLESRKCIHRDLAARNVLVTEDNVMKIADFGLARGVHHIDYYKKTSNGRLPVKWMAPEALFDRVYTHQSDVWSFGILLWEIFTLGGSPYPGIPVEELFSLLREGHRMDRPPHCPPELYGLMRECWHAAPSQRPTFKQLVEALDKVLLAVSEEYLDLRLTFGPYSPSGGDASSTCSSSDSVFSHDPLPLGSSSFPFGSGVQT

Take `C=CC(=O)N1CC[C@H](n2nc(C#Cc3cc(Cl)ccc3F)c(C(N)=O)c2NC)C1` [Compound 23, (S)-1-(1-acryloylpyrrolidin-3-yl)-3-((5-chloro-2-fluorophenyl)ethynyl)-5-(methylamino)-1H-pyrazole-4-carboxamide]: the IC50 was less than 10 nM in assay [1]; 10 to 100 nM in assay [2]; 10 to 100 nM in assay [3]; less than 10 nM in assay [4]; less than 10 nM in the assay on Hep3B hepatoma cell line; less than 10 nM in assay [5]. In assay [6], the IC50 lay in the range of 10 to 100 nM.

As to `C=CC(=O)N1CC[C@H](n2nc(C#Cc3cc(OC)cc(OC)c3)c(C(N)=O)c2NCCCN2CCOCC2)C1` [Compound 30, (S)-1-(1-acryloylpyrrolidin-3-yl)-3-((3,5-dimethoxyphenyl)ethynyl)-5-((3-morpholinopropyl)amino)-1H-pyrazole-4-carboxamide], the IC50 is less than 10 nM in assay [1]; less than 10 nM in assay [2]; 10 to 100 nM in assay [3]; less than 10 nM in assay [4]; 10 to 100 nM with Hep3B hepatoma cell line; less than 10 nM in assay [5]. The IC50 in assay [6] was in the range of 10 to 100 nM.

`C=CC(=O)N1CC[C@H](n2nc(C#Cc3cc(OC)cc(OC)c3)c(C(N)=O)c2NCCO)C1` [Compound 29, (S)-1-(1-acryloylpyrrolidin-3-yl)-3-((3,5-dimethoxyphenyl)ethynyl)-5-((2-hydroxyethyl)amino)-1H-pyrazole-4-carboxamide]: the IC50 in assay [1] was less than 10 nM; in assay [2] it was less than 10 nM; in assay [3] it was 10 to 100 nM; in assay [4], less than 10 nM; in the assay with Hep3B hepatoma cell line, less than 10 nM; in assay [5], less than 10 nM. In addition, the IC50 in assay [6] fell in the range of 10 to 100 nM.

Take `CC#CC(=O)N1CC[C@H](n2nc(C#Cc3cc(OC)cc(OC)c3)c(C(N)=O)c2N)C1` [Compound 10]: the IC50 in assay [2] is 10 to 100 nM; in assay [3], 10 to 100 nM; in assay [4] it was less than 10 nM; in the assay on Hep3B hepatoma cell line it was 10 to 100 nM; in assay [6], 10 to 100 nM.

Consider `C=CC(=O)N1CC[C@H](n2nc(C#Cc3cc(OC)cc(OC)c3F)c(C(N)=O)c2N)C1` [Compound 17, (S)-1-(1-acryloylpyrrolidin-3-yl)-5-amino-3-((2-fluoro-3,5-dimethoxyphenyl)ethynyl)-1H-pyrazole-4-carboxamide], for which the IC50 (in assay [1]; in assay [2]; in assay [3]; in assay [4]; in the assay with Hep3B hepatoma cell line; in assay [5]) was less than 10 nM in each case. Moreover, the IC50 in assay [6] is less than 10 nM.

Take `C=CC(=O)N1CC[C@H](n2nc(C#Cc3cc(OC)cc(OC)c3)c(C(N)=O)c2N)C1` [Compound 7, (S)-1-(1-acryloylpyrrolidin-3-yl)-5-amino-3-((3,5-dimethoxyphenyl)ethynyl)-1H-pyrazole-4-carboxamide]: the IC50 (in assay [1]; in assay [2]; in assay [3]; in assay [4]; with Hep3B hepatoma cell line; in assay [5]) was less than 10 nM throughout. Besides, the IC50 in assay [6] was less than 10 nM.

With `C=CC(=O)N1CC[C@H](n2cc(C(N)=O)c(C#Cc3cc(OC)cc(OC)c3)n2)C1` [Compound 1, (S)-1-(1-acryloylpyrrolidin-3-yl)-3-((3,5-dimethoxyphenyl)ethynyl)-1H-pyrazole-4-carboxamide], the IC50 (in assay [1]; in assay [2]; in assay [3]; in assay [4]; with Hep3B hepatoma cell line; in assay [5]) was 10 to 100 nM throughout. Also, the IC50 in assay [6] was in the range of 10 to 100 nM.

For the compound `C=CC(=O)N1CC[C@H](n2nc(C#Cc3cc(OC)cc(OC)c3)c(C(N)=O)c2NCCN2CCOCC2)C1` [Compound 31, (S)-1-(1-acryloylpyrrolidin-3-yl)-3-((3,5-dimethoxyphenyl)ethynyl)-5-((2-morpholinoethyl)amino)-1H-pyrazole-4-carboxamide], the IC50 in assay [1] was less than 10 nM; in assay [2], less than 10 nM; in assay [4], less than 10 nM; with Hep3B hepatoma cell line, 10 to 100 nM; in assay [5], less than 10 nM; in assay [6] it was 10 to 100 nM.

As to `C=CC(=O)N1CC[C@H](n2nc(C#Cc3cc(OC)cc(OC)c3)c(C(N)=O)c2NCC2CC2)C1` [Compound 26, (S)-1-(1-acryloylpyrrolidin-3-yl)-5-((cyclopropylmethyl)amino)-3-((3,5-dimethoxyphenyl)ethynyl)-1H-pyrazole-4-carboxamide], the IC50 in assay [1] was less than 10 nM; in assay [2], less than 10 nM; in assay [3] it was less than 10 nM; in assay [4] it was less than 10 nM; in the assay with Hep3B hepatoma cell line, 10 to 100 nM; in assay [5] it was less than 10 nM. Moreover, the IC50 in assay [6] is less than 10 nM.

In the case of `C=CC(=O)N1CC[C@H](n2nc(C#Cc3cc(OC)cc(OC)c3F)c(C(N)=O)c2NC)C1` [Compound 22, (S)-1-(1-acryloylpyrrolidin-3-yl)-3-((2-fluoro-3,5-dimethoxyphenyl)ethynyl)-5-(methylamino)-1H-pyrazole-4-carboxamide], the IC50 (in assay [1]; in assay [2]; in assay [3]; in assay [4]; in the assay with Hep3B hepatoma cell line; in assay [5]) was less than 10 nM in each case. The half-inhibitory concentration (IC50) in assay [6] is less than 10 nM.
